Laboratory results from US4371544A, “Pharmaceutical composition containing 1,1,3,5-substituted biuret compound” (Taiho Pharmaceutical Company Limited, priority 1979, dated 1983).
Where two headings read alike, the source gives them in different places.

What was measured:
[1] = test system: ddy strain of male mice; test: Acute toxicity (oral, mice, 7 days observation); type: in vivo
Description: (§1) Next, several tests for determining the pharmacological properties, in that acute toxicity, anti-pyretic activity, analgesic activity and anti-inflammatory activity of the present 1,1,3,5-substituted biuret compounds of the formula (1) were conducted and the test results are shown in Table (2). In the tests, each compounds to be tested was used as a suspension in 0.25% carboxymethylcellulose solution. Methods for testing are explained as follows:
The ddy strain of male mice (body weight, 20-25 g) were used as test animals. The mice were fasted overnight and the compound to be tested was administered orally. […] The lethal dose (mg/kg, body weight) of the test compound was determined in connection with the death number of mice/the number of mice tested. In Table 2, the values indicated with Δ marks are 50% lethal dose, LD50 (mg/kg, body weight).

[2] = test system: ddy strain of male mice; test: Analgesic activity, Haffner method (morphine threshold dose, clamp); type: in vivo, mouse (ddy); settings: for inhibition in vivo at 200 mg/kg: 200 mg/kg oral; for ED50: oral, Δ mark, range in parentheses
Description: as §1
According to the modified method reported by Fujimura et. al., [Bulletin of the Institute for Chemical Research, Kyoto University, No. 25, pp. 36 (1951)], the ddy strain of male mice (body weight, 20-25 g) were used as test animals. The mice were fasted overnight, 100 mg/kg body weight of the test compound was administered orally, then 45 minutes after the administration, the threshold amount (1.5-2.5 mg/kg body weight) of morphine hydrochloride was injected subcutaneously. Then 1-hour pain reaction of the mouse caused by a clamp was observed. Analgesic activity of the test compound was calculated as the inhibitory ratio (%). In Table 2, the values in parentheses show the data obtained from the test by using the dosage other than 100 mg/kg body weight. Further, the values indicated with Δ marks show 50% effective dose, ED50 (mg/kg body weight).

[3] = test system: ddy strain of male mice; test: Analgesic activity, acetic acid-induced stretching method; type: in vivo, mouse (ddy); settings: for ED50: oral, Δ mark, range in parentheses
Description: as §1
According to the method reported by Koster et al., [Fed. Proc., Vol. 18, pp. 412 (1959)], the ddy strain of male mice (body weight, 20-25 g) were used as test animals. The mice were fasted overnight, 100 mg/kg body weight of the test compound was administered orally, then 1 hour after the administration, 0.2 ml of 0.7% acetic acid solution was injected intraperitoneally. The acetic acid-induced stretching symptom of mouse was observed. Analgesic activity of the test compound was calculated as the inhibitory ratio (%). In Table 2, the values in parentheses show the data obtained from the test by using the dosage other than 100 mg/kg body weight. Further, the values indicated with Δ marks show 50% effective dose, ED50 (mg/kg body weight).

[4] = test system: Wistar strain of male rats; test: Anti-inflammatory activity (acute carrageenin-induced inflammatory test, hindpaw); type: in vivo, rat (Wistar)
Description: as §1
According to the method of acute carrageenin-induced inflammatory test [Folia Pharmacologia Japonica, Vol. 56, pp. 575 (1960)], the Wistar strain of male rats (body weight, 150-180 g) were used as test animals. The rats were fasted overnight, 100 mg/kg body weight of the test compound was administered orally, then 1 hour after the administration, 0.1 ml of 1% carrageenin solution, as the inflammation inducing agent, was injected subcutaneously to the hindpaw of the rat and the volume of the hindpaw was measured at time sequences, Anti-inflammatory activity of the test compound was calculated as inflammation inhibitory ratio (%) at 3 hours after the injection of inflammation inducing agent.

[5] = test system: Wistar strain of male rats; test: Anti-pyretic activity (dry-yeast-induced fever); type: in vivo, rat (Wistar); settings: oral (dose not given), up to 4 hours after administration
Description: as §1
According to the method reported by Tanabe [Folia Pharmacologia Japonica, Vol. 73, pp. 803 (1977)], the Wistar strain of male rats (150-180 g, body weight) were used as test animals. The rats were fasted overnight, and 1 ml/100 g (body weight) of 10% dry-yeast suspension were subcutaneously injected on the back of the rats. Five hours after the injection, the test compound was administered orally, then the body temperature of the rat was measured at time sequences. Anti-pyretic activity of the test compound was determined as the FI (febril index) by integrating pyrogenetic curve up to 4 hours after the administration of the test compound with time, and indicated as inhibitory ratio (%) shown by the following formula, [formula]

[6] = Mus musculus, read-out: Analgesic activity, Haffner method, inhibitory ratio
[7] = Mus musculus, po, read-out: Analgesic activity, acetic acid-induced stretching method, inhibitory ratio
[8] = Rattus norvegicus, 100 mg/kg oral, 3 hours after carrageenin, read-out: Anti-inflammatory activity, inflammation inhibitory ratio
[9] = 100 mg/kg oral, 3 hours after carrageenin

SMILES: CN(C)C(=O)NC(=O)Nc1ccccc1 [Compound No. 1]
- Acute toxicity: death number of mice/number of mice tested ([1]; mouse, in vivo): 0/4
- inhibition in vivo at 200 mg/kg [2, 6]: 50%
- inhibition in vivo at 100 mg/kg [3, 7]: 50%
- inhibition in vivo at 100 mg/kg [4, 8]: 42%

SMILES: COc1ccc(NC(=O)NC(=O)N(C)C)cc1 [Compound No. 4, 1,1-Dimethyl-5-(4-methoxyphenyl)biuret]
- Acute toxicity: death number of mice/number of mice tested ([1]; 2000 mg/kg oral): 0/4
- inhibition in vivo at 100 mg/kg ([2]; Mus musculus, 100 mg/kg oral, 45 minutes before morphine hydrochloride, read-out: Analgesic activity, Haffner method, inhibitory ratio): 50%
- inhibition in vivo at 100 mg/kg [3, 7]: 75%
- inhibition in vivo at 100 mg/kg ([4]; Rattus norvegicus, po, 3 h, read-out: Anti-inflammatory activity, inflammation inhibitory ratio): 43%

SMILES: Cc1ccc(NC(=O)NC(=O)N(C)C)cc1 [Compound No. 5]
- Acute toxicity: death number of mice/number of mice tested ([1]; 2000 mg/kg oral): 0/4
- inhibition in vivo at 100 mg/kg [3, 7]: 25%
- inhibition in vivo at 100 mg/kg ([4]; Rattus norvegicus, po, 2 h, read-out: Anti-inflammatory activity, inflammation inhibitory ratio): 23%

SMILES: CN(C)C(=O)N(C)C(=O)Nc1ccccc1 [Compound No. 6, 1,1,3-trimethyl-5-phenylbiuret]
- Anti-pyretic activity, inhibitory ratio (febril index) [5]: 80%
- ED50 ([2]; Mus musculus): 68 mg/kg
- ED50 ([3]; Mus musculus): 75 mg/kg
- Anti-inflammatory activity, inflammation inhibitory ratio [4, 9]: 59%

SMILES: CN(C)C(=O)N(C)C(=O)Nc1ccc(Cl)cc1 [Compound No. 12, 1,1,3-Trimethyl-5-(4-chlorophenyl)biuret]
- Anti-pyretic activity, inhibitory ratio (febril index) [5]: 84%
- ED50 ([2]; Mus musculus): 20 mg/kg
- ED50 ([3]; Mus musculus): 12 mg/kg
- Anti-inflammatory activity, inflammation inhibitory ratio [4, 9]: 47%

SMILES: CN(C)C(=O)N(C)C(=O)Nc1ccc(Br)cc1 [Compound No. 16, 1,1,3-Trimethyl-5-(4-bromophenyl)biuret]
- Anti-pyretic activity, inhibitory ratio (febril index) [5]: 103%
- ED50 ([2]; Mus musculus): 74 mg/kg
- ED50 ([3]; Mus musculus): 60 mg/kg
- Anti-inflammatory activity, inflammation inhibitory ratio ([4]; 100 mg/kg oral, (2 hours)): 48%

SMILES: CN(C)C(=O)N(C)C(=O)Nc1ccccc1C(F)(F)F [Compound No. 17, 1,1,3-Trimethyl-5-(2-trifluoromethylphenyl)biuret]
- Anti-pyretic activity, inhibitory ratio (febril index) [5]: 65%
- Acute toxicity: death number of mice/number of mice tested ([1]; 1000 mg/kg oral): 1/4
- Analgesic activity, Haffner method, inhibitory ratio ([2]; 100 mg/kg oral, 45 minutes before morphine hydrochloride): 37.5%
- Analgesic activity, acetic acid-induced stretching method, inhibitory ratio ([3]; 100 mg/kg oral, 1 hour before acetic acid): 12.5%
- Anti-inflammatory activity, inflammation inhibitory ratio [4, 9]: 66%

SMILES: COc1ccc(NC(=O)N(C)C(=O)N(C)C)cc1 [Compound No. 23, 1,1,3-Trimethyl-5-(4-methoxyphenyl)biuret]
- Anti-pyretic activity, inhibitory ratio (febril index) [5]: 75%
- ED50 ([2]; Mus musculus): 80 mg/kg
- ED50 ([3]; Mus musculus): 39 mg/kg
- Anti-inflammatory activity, inflammation inhibitory ratio [4, 9]: 33%

SMILES: Cc1ccc(NC(=O)N(C)C(=O)N(C)C)cc1 [Compound No. 28, 1,1,3-Trimethyl-5-(4-methylphenyl)biuret]
- Anti-pyretic activity, inhibitory ratio (febril index) [5]: 52%
- Acute toxicity: death number of mice/number of mice tested ([1]; 2000 mg/kg oral): 0/4
- ED50 ([2]; Mus musculus): 80 mg/kg
- ED50 ([3]; Mus musculus): 33 mg/kg
- Anti-inflammatory activity, inflammation inhibitory ratio ([4]; 100 mg/kg oral, (2 hours)): 23%

SMILES: CN(C)C(=O)N(C(=O)Nc1ccccc1)c1ccccc1 [Compound No. 42, 1,1-dimethyl-3,5-diphenylbiuret]
- Anti-pyretic activity, inhibitory ratio (febril index) [5]: 14%
- Acute toxicity: death number of mice/number of mice tested ([1]; 1000 mg/kg oral): 0/4
- Acute toxicity: death number of mice/number of mice tested ([1]; 2000 mg/kg oral): 3/4
- inhibition in vivo at 200 mg/kg [2, 6]: 50%
- inhibition in vivo at 200 mg/kg [3, 7]: 62.5%
- inhibition in vivo at 100 mg/kg [4, 8]: 34%

SMILES: CCN(C)C(=O)NC(=O)Nc1ccccc1 [Compound No. 43, 1-ethyl-1-methyl-5-phenylbiuret]
- Acute toxicity: death number of mice/number of mice tested ([1]; 2000 mg/kg oral): 0/4
- inhibition in vivo at 200 mg/kg [2, 6]: 12.5%
- inhibition in vivo at 100 mg/kg ([3]; Mus musculus, 100 mg/kg oral, 1 hour before acetic acid, read-out: Analgesic activity, acetic acid-induced stretching method, inhibitory ratio): 50%
- inhibition in vivo at 200 mg/kg ([4]; Rattus norvegicus, 200 mg/kg oral, 3 hours after carrageenin, read-out: Anti-inflammatory activity, inflammation inhibitory ratio): 72%
